Measured values reported in US10597398B2, “Suppression and regeneration promoting effect of low molecular weight compound on cancer and fibrosis” (NATIONAL UNIVERSITY CORPORATION TOTTORI UNIVERSITY, priority 2015, dated 2020).

What was measured:
Type in all cases: cell-based, human
[1] = test system: HuH-7 cells; experiment: Growth inhibitory effect on cancer cells (WST assay), Example 2.3; conditions: HuH-7 cells, WST assay, concentrations 0-50 μM, control 0.1% DMSO
How it was run: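 HuH-7 human hepatoma cells seeded at 5×10^3 cells/well, treated after 24 h with compound at 0–50 μM (0.1% DMSO vehicle control), n=3. Viability read by WST (CCK-8) absorbance at 450/600 nm after 60 min at 37 °C, taken 0, 24, 48 and 96 h post-treatment; kit-only blank subtracted.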

[2] = test system: Wnt/β-catenin signaling; experiment: Inhibitory effect on Wnt/β-catenin signaling in liver cancer cells (HuH7-TCF4 luciferase); conditions: concentration equal to or lower than that of IC-2
How it was run: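 HuH-7 cells stably carrying a 3×TCF4-motif firefly luciferase reporter, treated 48 h at 37 °C with compounds at concentrations reducing HuH-7 growth to about 50% or less (n=3). Firefly luciferase luminescence read from lysates; 0.1% DMSO solvent control, 0.5 μM 5-FU control; Student's t-test.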

[3] = test system: cancer stem cells (CD44) in HuH-7 cells; experiment: Inhibitory effect on cancer stem cells (FCM analysis of CD44), Example 6.4; conditions: CD44, day 2, IC-2 50 μM, 5-FU 0.5 μM, compared with control 1% DMSO
Protocol: CD44, a cancer stem cell marker, was used as an indicator to examine an inhibitory effect of IC-2 on cancer stem cells. First, 70 to 90% confluent HuH-7 cells were harvested and seeded at 1.5×10^6 cells per 10-cm cell culture dish. After 15 h, the cells were treated with hexachlorophene (15 μM), ICG-001 (15 μM), PKF118-310 (5 μM), IC-2 (50 μM), or 5-FU (0.5 μM), and the mixture was cultured at 37° C. Each control sample used was 1% DMSO, a solvent for each compound or the anti-cancer drug. Day 2 after the drug treatment, the cells were harvested from each culture dish. The cells were centrifuged at 1000 rpm and at 4° C. for 5 min to remove a supernatant and were then washed twice with 1 mL of 0.5% FBS/2 mM EDTA/PBS. Next, the cells were suspended in 500 μL of 5% BSA/0.5% FBS/2 mM EDTA/PBS for blocking at 4° C. for 15 min.
Then, 5 μL of a mouse anti-human CD44 monoclonal antibody (156-3C11, Cell Signaling Technology Inc., Danvers, Mass.) was added to 500 μL of the cell suspension. The mixture was resuspended and subjected to a primary antibody reaction in a dark room at 4° C. for 10 min. After that, the cells were washed 3 times with 1 mL of PBS. Subsequently, 1.0 μg of Alexa Fluor 488-labeled IgG (H+L) (Life Technologies Corp., Carlsbad, Calif.) was added and the mixture was suspended. Then, a secondary antibody reaction was carried out in a dark room at 4° C. for 10 min. […]

IC50 [1] [µM]	SMILES	inhibitory effect on Wnt/β-catenin signaling pathway in liver cancer cells compared with IC-2 [2]	number of cancer stem cells [3]
> 50	COc1ccc(COc2ccc(CNC(=O)N3CCC(=O)N4C(Cc5ccccc5)C(=O)N(Cc5cccc6ccccc56)CC34)cc2)cc1 (stereo not drawn) [IC-2-OPMB]	more potent inhibitory effect	–
–	O=C1C(Cc2ccccc2)N2C(=O)CCN(C(=O)NCc3ccccc3)C2CN1Cc1cccc2ccccc12 (stereo not drawn) [IC-2]	–	significant reduction in the number of cancer stem cells
